Where two headings read alike, the source gives them in different places.
Legend:
IL-6 receptor = biological target: T1, IL-6 receptor (Homo sapiens, UniProt P08887); settings: patients with rheumatoid arthritis and systemic juvenile idiopathic arthritis; cited from earlier work
T1 sequence (P08887 20-468): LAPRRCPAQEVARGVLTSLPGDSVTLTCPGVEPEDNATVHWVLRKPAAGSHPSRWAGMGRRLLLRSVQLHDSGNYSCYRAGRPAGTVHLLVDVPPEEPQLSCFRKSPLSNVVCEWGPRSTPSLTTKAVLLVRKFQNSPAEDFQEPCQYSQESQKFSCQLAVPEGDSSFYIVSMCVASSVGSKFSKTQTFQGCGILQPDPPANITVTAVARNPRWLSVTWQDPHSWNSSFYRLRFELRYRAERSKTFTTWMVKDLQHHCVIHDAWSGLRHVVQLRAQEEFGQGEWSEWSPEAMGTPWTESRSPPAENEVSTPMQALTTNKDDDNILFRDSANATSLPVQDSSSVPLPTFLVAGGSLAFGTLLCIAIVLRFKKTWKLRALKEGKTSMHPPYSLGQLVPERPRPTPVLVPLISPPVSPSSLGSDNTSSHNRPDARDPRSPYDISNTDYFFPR

[1] = log P (n-octanol/water partition coefficient); format: physicochemical; settings: active ingredient of Example 9
Method: In fact, cannabinoids are highly lipophilic molecules (log P 6-7) with very low water solubility (2-10 µg / ml). The log P is the decimal logarithm of the n-octanol/water partition coefficient. The partition coefficient can be determined experimentally. Values typically refer to room temperature (25° C.). The partition coefficient can also be roughly calculated from the molecular structure.

[2] = Systemic exposure after i.p. and oral application of CBD in mice; format: in vivo; settings: 20 mg/kg; assuming dose-proportional plasma concentrations
Method: A comparative investigation for systemic exposure after i.p. and oral application of CBD in mice and rats has shown that 120 mg/kg as a single dose leads to a maximum plasma concentration of 14,000 ng/ml in mice (S. Deiana et al. (2012). Plasma and brain pharmacokinetic profile of cannabidiol (CBD), cannabidivarine (CBDV), Delta(9)-tetrahydrocannabivarin (THCV) and cannabigerol (CBG) in rats and mice following oral and intraperitoneal administration and CBD action on obsessive-compulsive behaviour. Psychopharmacology (Berl) 219(3): 859-73).

IL-6 secretion [3] = settings: conversion of the effective concentration
[4] = mice; 120 mg/kg single dose (Deiana et al. 2012); cited from earlier work
IL-6 secretion [5] = settings: cellular models, majority of cases (Chen et al. 2016); cited from earlier work
[6] = test system: LPS-induced acute lung injury; settings: cited from earlier work
[7] = test system: LPS-induced acute lung injury; settings: mice, 20 mg/kg, cited from earlier work
human mononuclear cells = settings: nanomolar or micromolar concentrations; cited from earlier work
human neutrophils = settings: McHugh et al. 2008; cited from earlier work
CD83 = settings: dendritic cells derived from individuals with HIV infection; cited from earlier work
microglial cells = settings: 1-16 µmol/l (Wu et al. 2012); cited from earlier work
[8] = test system: chemically induced acute hepatitis; settings: mice, cited from earlier work
[9] = test system: activated memory T cell line; settings: 1-5 µmol/l (Kozela et al. 2013), cited from earlier work
[10] = test system: ischemia-reperfusion-induced kidney injury; settings: mice, cited from earlier work
inflammatory processes = settings: cited from earlier work
NK, NKT, T and B cells = settings: healthy rats, cited from earlier work
[11] = mice, 0.3-80 mg/kg i.p. 60 minutes before LPS (Ribeiro et al. 2012)

**Q.** With “tocilizumab: a humanized anti-IL-6 receptor antibody” as the compound, how does the efficacy (IL-6 receptor) read?
**A.** The efficacy was “verified its efficacy”.

**Q.** And the safety (IL-6 receptor)?
**A.** The safety was “tolerable safety”.

**Q.** Which logP [1] does the source give for `C=C(C)[C@@H]1CCC(C)=C[C@H]1c1c(O)cc(CCCCC)cc1O` [CBD, 2-[(1R,6R)-3-methyl-6-(1-methylethenyl)-2-cyclohexen-1-yl]-5-pentyl-1,3-benzenediol] here?
**A.** Its logP is ~6.1.

**Q.** What about the target peak exposure [2] of the same compound?
**A.** The target peak exposure was 2,300 ng/ml.

**Q.** What about the “resulting concentration (5 µM converted with molecular weight 314.5 g/mol)” value (IL-6 secretion [3]) of the same compound?
**A.** Its value is 1,570 ng/ml.

**Q.** And the maximum plasma concentration [4]?
**A.** Its maximum plasma concentration is 14,000 ng/ml.

**Q.** What about the “effective concentration for suppressive effect on IL-6 secretion” value (IL-6 secretion [5]) of the same compound?
**A.** The value was ~5 µM.

**Q.** And the “number of leukocytes including macrophages and neutrophils in the bronchoalveolar lavage fluid” value ([6]; mice, 20 mg/kg, after LPS-induced lung inflammation)?
**A.** Its value is “decreases”.

**Q.** What about the Total leukocytes migration [6, 11] of the same compound?
**A.** Its Total leukocytes migration is “significantly decreased”.

**Q.** What about the myeloperoxidase activity [6, 11] of the same compound?
**A.** The myeloperoxidase activity was “significantly decreased”.

**Q.** What about the “pro-inflammatory cytokine production including TNF-a and IL-6” value [6, 11] of the same compound?
**A.** The value was “significantly decreased”.

**Q.** And the vascular permeability [6, 11]?
**A.** Its vascular permeability is “significantly decreased”.

**Q.** What about the “dose at which effects reached a nearly maximum extent” value ([6]; prophylactic application, i.p.) of the same compound?
**A.** The value was 20 mg/kg.

**Q.** And the mechanical lung function ([7]; 6 h after LPS (Ribeiro et al. 2014))?
**A.** The mechanical lung function was “improved”.

**Q.** And the “leukocyte migration (neutrophil, macrophages and lymphocytes) into the lungs” value ([7]; 6 h after LPS)?
**A.** The value was “decreased”.

**Q.** And the “myeloperoxidase activity in the lung tissue” value ([7]; 6 h after LPS)?
**A.** Its value is “decreased”.

**Q.** And the “production of proinflammatory cytokines/chemokines” value ([7]; 6 h after LPS)?
**A.** The value was “reduced”.

**Q.** What about the vascular permeability ([7]; 6 h after LPS) of the same compound?
**A.** The vascular permeability was “reduced”.

**Q.** And the “release of pro-inflammatory cytokines” value (human mononuclear cells)?
**A.** The value was “suppressed”.

**Q.** What about the “migration of human neutrophils” value (human neutrophils) of the same compound?
**A.** The value was “inhibits”.

**Q.** What about the “CD83 dendritic cell activation marker” value (CD83) of the same compound?
**A.** Its value is “suppresses”.

**Q.** What about the “apoptosis in microglial cells” value (microglial cells) of the same compound?
**A.** Its value is “induces apoptosis”.

**Q.** What about the “expression of MDSCs” value ([8]; 25 mg/kg (Hegde et al. 2011)) of the same compound?
**A.** The value was “induces the expression of MDSCs”.

**Q.** And the “pro-inflammatory cytokines such as IL-2, TNF-α and IL-6” value ([8]; 25 mg/kg)?
**A.** The value was “reduction”.

**Q.** And the “IL-6 production and secretion” value [9]?
**A.** Its value is “decreased”.

**Q.** And the “production of IL-10” value [9]?
**A.** The value was “increased”.

**Q.** What about the “autoantigen-specific Th17 cell phenotype (Th17 signature cytokine IL-17)” value ([9]; dose-dependently) of the same compound?
**A.** Its value is “reduces”.

**Q.** What about the kidney protection ([10]; 10 mg/kg after induced kidney injury (Baban et al. 2018)) of the same compound?
**A.** The kidney protection was “renoprotective”.

**Q.** And the “decreased Treg17 and increased Th17 levels” value ([10]; 10 mg/kg after induced kidney injury)?
**A.** Its value is “reversed these effects”.

**Q.** And the “circulating IL-6” value (inflammatory processes; animal models including diabetes, asthma, pancreatitis and hepatitis (Nichols and Kaplan 2020))?
**A.** The value was “suppress”.

**Q.** What about the “regulatory T cells (Tregs)” value (inflammatory processes; several disease models (Nichols and Kaplan 2020)) of the same compound?
**A.** The value was “induce regulatory T cells (Tregs)”.

**Q.** And the “numbers of natural killer (NK) cells and natural killer T (NKT) cells” value (NK, NKT, T and B cells; 2.5 mg/kg per day)?
**A.** The value was “increased”.

**Q.** What about the “numbers of natural killer (NK) cells and natural killer T (NKT) cells” value (NK, NKT, T and B cells; 5 mg/kg per day) of the same compound?
**A.** The value was “not affected”.

**Q.** What about the “number of B cells” value (NK, NKT, T and B cells; daily 5 mg/kg) of the same compound?
**A.** Its value is “significantly reduced”.

**Q.** And the “number of T cells including T helper cells and cytotoxic T cells” value (NK, NKT, T and B cells; daily 5 mg/kg)?
**A.** Its value is “significantly reduced”.

— patent US20230172873A1, “Uses and Formulations of Cannabinoids” (priority 2020, published 2023)
